Drawing on US20230082611A1, “COMPOSITIONS AND METHODS FOR THE TREATMENT OF RESPIRATORY SYNCYTIAL VIRUS” (Cidara Therapeutics, Inc., priority 2019, published 2023), this text covers EC50 for 15 molecules.

The test system of one test is RSV (Respiratory Syncytial Virus strain A2). Nature of the test: RSV cytopathic effects (CPE) assay. Type of test: cell-based. The note with it: human respiratory syncytial virus, 96 h; RSV A2, MOI 0.01, HEp-2 cells, day 4, crystal violet; average of duplicate wells; read-out: EC50. As to the method:
The activity of anti-RSV compounds and conjugates was determined using an in vitro cell-based assay following a standard protocol in the field. Briefly, ten four-fold serial dilutions of each test article (TA) starting at 10 μM were prepared in duplicate and incubated with RSV (Respiratory Syncytial Virus strain A2) at a multiplicity of infection (MOI) of 0.01, for one hour. The RSV-TA mix was then added to HEp-2 cells seeded in 96-well plates and incubated for one hour.
As for `C#CCOCCOCCNC(=N)N[C@H]1CCN(c2nc3cc([C@@H]4CCCCN4C(=O)c4cc(Cl)ccc4NS(C)(=O)=O)nn3cc2C)C1` [Int-6], the EC50 was 2200 nM.

Staying with this test, now noted: human respiratory syncytial virus, HEp-2, 96 h.
The molecule `C#CCOCCOCCOCCOCCOCCOCCOCCOCCN[C@H]1CCN(c2nc3cc([C@@H]4CCCCN4C(=O)c4cc(Cl)ccc4NS(C)(=O)=O)nn3cc2C)C1` [Int-8] had a concentration for a half-maximal effect (EC50) of 2.29 nM.

A further test has as its system RSV Long strain. Nature of the test: RSV microneutralization assay, RSV Long strain. The note with it: human respiratory syncytial virus, HEp-2, […], read-out: RSV Long EC50. It is filed as cell-based. Here is the method: Duplicate 10-fold serial dilutions of compound in DMEM with 2% HI-FBS, 1× P/S, 2 mM L-Gln were prepared in 96-well tissue culture plates at 60 μL/well. The RSV Long strain (RetroVirox, San Diego), RSV A2 strain (Virapur, San Diego), RSV B1 strain (RetroVirox, San Diego), or RSV strain CH18537 (RetroVirox, San Diego), were diluted in DMEM with 2% HI-FBS, 1× P/S, 2 mM L-Gln and 60 μL/well added to 60 μL compound for a multiplicity of infection (MOI) of 0.002 (Long, A2), 0.003 (B1), or 0.004 (CH18537). Virus only (no drug) and cells only (no virus, no drug) controls were included on each plate. The compound-virus mix was incubated for 1 h at 37° C. and 5% CO2. After 1 h, medium was removed from HEp-2 cells by aspiration and wells washed once with 100 μL/well 1×PBS pH 7.4 (Fisher cat #MT21040CM). The compound-virus mix (100 μL/well) was added to the cells and incubated for 1 h at 37° C. and 5% CO2 prior to addition of 100 μL/well of DMEM with 2% HI-FBS, 1× P/S, 2 mM L-Gln (200 μL final vol) and incubation at 37° C. and 5% CO2. On day 6 post infection, supernatant was aspirated and cells fixed with 100 μL/well ice-cold 80% acetone in 1×PBS for 20 min at 4° C. The acetone was aspirated and plates air-dried for 20 min at room temperature. The plates were washed 3× with 200 μL/well 1×PBS, 0.05% Tween-20 (PBST) and blocked with 200 μL/well 5% non-fat dry milk (Fisher cat #50-195-952) in PBST for 1 h with shaking (500 rpm) on an orbital plate shaker. The blocking solution was discarded and cells incubated with 100 μL/well mouse anti-F protein antibody (MilliporeSigma cat #MAB8599) diluted 1:2,000 in diluent (blocking solution diluted 1:1 in 1×PBS pH 7.4) for 2 h with shaking. Plates were washed 5× with 300 μL/well PBST and incubated with 100 μL/well HRP-conjugated goat anti-mouse IgG antibody (SouthernBiotech cat #1030-05) diluted 1:1,000 in diluent for 1 h with shaking. Plates were washed 5× with 300 μL/well PBST and incubated with 100 μL/well TMB substrate (Fisher cat #BDB555214) for ˜5 min. The reaction was stopped with 100 μL/well 1N H2SO4. Absorbance was read at 450 nm with an EnSpire multimode plate reader (PerkinElmer). The mean A450 for the cells only control was subtracted from all A450 values, and the percent virus neutralisation calculated for each compound concentration, relative to the virus only control.
As to `C#CCOCCOCCOCCOCCOCCOCCOCCOCCN[C@H]1CCN(c2nc3cc([C@@H]4CCCCN4C(=O)c4cc(Cl)ccc4NS(C)(=O)=O)nn3cc2C)C1` [Int-8], the EC50 was 43 nM.
For the molecule `C#CCOCCOCCOCCOCCN1CCN(CCCN[C@H]2CCN(c3nc4cc([C@H]5CCCCN5C(=O)c5cc(Cl)ccc5NS(C)(=O)=O)nn4cc3C)C2)CC1` [Int-10], the EC50 was found to be 97 nM.
Still for that read-out and setting: then `C#CCOCCOCCOCCOCCNCC1CN(c2nc3cc([C@@H]4CCCCN4C(=O)c4cc(Cl)ccc4NS(C)(=O)=O)nn3cc2C)C1` [Int-01], with 98 nM.

The same test, now with this note: human respiratory syncytial virus; MOI 0.002, HEp-2 cells, day 6; read-out: RSV Long EC50.
Take `C#CCOCCOCCOCCOCCOCCOCCOCCOCCNC(=O)CN(CC(=O)NCCOCCOCCOCCOCCOCCOCCOCCOCCOCCOCCOCCOC)C(=O)CCCCN[C@H]1CCN(c2nc3cc(C4CCCCN4C(=O)c4cc(Cl)ccc4NS(C)(=O)=O)nn3cc2C)C1` (stereo partly shown) [Int-26]: the EC50 is 170 nM.
Still for that read-out and setting: in the case of `C#CCOCCOCCOCCOCCC(=O)NCCCCn1c(CN2C(=O)C3(CCN(C(=O)OC(C)C)CC3)c3ccncc32)nc2cc(Cl)ccc21` [Int-34] it was 0.13 nM.
Turning to `C#CCOCCOCCOCCOCCOCCOCCOCCCCN[C@H]1CCN(c2nc3cc([C@@H]4CCCCN4C(=O)c4cc(Cl)ccc4NS(C)(=O)=O)nn3cc2C)C1` [Int-05], the half-maximal effective concentration (EC50) was over 1000 nM.
Turning to `Cc1nnnn1N=Cc1ccc(O)c(C(c2ccc(O)cc2)c2cc(C=Nn3nnnc3C)ccc2O)c1` (stereo not shown) [VP14637, MDT 637, reference compound], the EC50 worked out at 0.09 nM.
The same measure, in the same setting: then `C#CCOCCOCCOCCOCCOCCOCCOCCOCCNC(=O)CN(CC(=O)O)C(=O)CCCCN[C@H]1CCN(c2nc3cc([C@@H]4CCCCN4C(=O)c4cc(Cl)ccc4NS(C)(=O)=O)nn3cc2C)C1` [Int-25], with 92 nM; and `C#CCOCCOCCOCCOCCN[C@@H]1CN(c2nc3cc([C@@H]4CCCCN4C(=O)c4cc(Cl)ccc4NS(C)(=O)=O)nn3cc2C)C[C@@H]1O` [Int-03], with over 1000 nM; and `C#CCOCCOCCOCCOCCN1CCN(CCCCN[C@H]2CCN(c3nc4cc([C@@H]5CCCCN5C(=O)c5cc(Cl)ccc5NS(C)(=O)=O)nn4cc3C)C2)CC1` [Int-24], with over 1000 nM.
Regarding `C#CCOCCOCCOCCOCCC(=O)N(CC(=O)NCCOCCOCCOCCOCCOCCOCCOCCOCCOCCOCCOCCOC)CC(=O)NCCn1cc(COCCOCCOCCOCCOCCOCCOCCCCN[C@H]2CCN(c3nc4cc([C@@H]5CCCCN5C(=O)c5cc(Cl)ccc5NS(C)(=O)=O)nn4cc3C)C2)nn1` [Int-27], the EC50 worked out at 200 nM.
Still for that read-out and setting: in the case of `C#CCOCCOCCOCCOCCC(=O)N[C@@H](CS(=O)(=O)O)C(=O)N1CCN(CCCN[C@H]2CCN(c3nc4cc([C@@H]5CCCCN5C(=O)c5ccc(Cl)cc5NS(C)(=O)=O)nn4cc3C)C2)CC1` [Int-23] it was over 1000 nM.
Still for that read-out and setting: then `C#CCOCCOCCOCCOCCO[C@H]1CN(c2nc3cc([C@@H]4CCCCN4C(=O)c4cc(Cl)ccc4NS(C)(=O)=O)nn3cc2C)C[C@H]1N` [Int-02], with 110 nM; and `C#CCOCCOCCOCCOCCO[C@@H]1CN(c2nc3cc([C@@H]4CCCCN4C(=O)c4cc(Cl)ccc4NS(C)(=O)=O)nn3cc2C)C[C@H]1N` [Int-04], with over 1000 nM.
